Where a name gives a salt, the structure may show the parent alone.

The target of this experiment is kinase domain of IRE1 alpha (His-tagged kinase dead construct KR, AA G547-L977, D688N) (Homo sapiens (Human), UniProt O75460, D688N). Put plainly: IRE1α TR-FRET competition binding assay. Conditions: competition with Kinase Tracer 236, 0.1 μM; one hour at room temperature. In short, it runs like this: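 Sf9-expressed kinase-dead KR construct (0.006 μM final) pre-incubated 1 h at 4° C with Eu anti-His antibody (0.002 μM) in HEPES pH 7.5/MgCl2/Brij/DTT buffer; Kinase Tracer 236 (ATP-competitive probe, 0.1 μM final) added with compound. 1 h at room temperature; tracer displacement read by TR-FRET (665/615 nm).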
Chain of kinase domain of IRE1 alpha (His-tagged kinase dead construct KR, AA G547-L977, D688N) (O75460 547-977 D688N): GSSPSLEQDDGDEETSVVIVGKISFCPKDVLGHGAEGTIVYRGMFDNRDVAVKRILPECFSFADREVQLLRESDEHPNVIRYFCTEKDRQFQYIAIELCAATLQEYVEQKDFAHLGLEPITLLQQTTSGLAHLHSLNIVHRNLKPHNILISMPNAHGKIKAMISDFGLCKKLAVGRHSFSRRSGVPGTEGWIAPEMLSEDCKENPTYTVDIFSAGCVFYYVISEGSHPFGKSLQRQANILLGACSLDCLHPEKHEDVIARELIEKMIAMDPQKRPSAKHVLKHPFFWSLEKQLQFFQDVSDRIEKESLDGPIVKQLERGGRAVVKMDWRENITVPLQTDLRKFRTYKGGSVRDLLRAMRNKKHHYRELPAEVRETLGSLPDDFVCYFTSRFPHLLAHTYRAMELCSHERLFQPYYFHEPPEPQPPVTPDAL
(TR-FRET usually uses a lanthanide donor and a delayed reading to cut background.)
With `O=S(=O)(Cc1ccccc1)Nc1c(F)cc(Oc2ncccc2-c2ccnc(N[C@@H]3CNC[C@H](F)C3)n2)c(F)c1F` [Compound 259, 1-Phenyl-N-(2,3,6-trifluoro-4-((3-(2-(((3S,5R)-5-fluoropiperidin-3-yl)amino)pyrimidin-4-yl)pyridin-2-yl)oxy)phenyl)methanesulfonamide], the IC50 (usually the point on the concentration scale where inhibition reaches its midpoint) is 2 nM. For the compound `Cc1c(Oc2ncccc2-c2ccnc(N[C@H]3CCCNC3)n2)ccc(NS(=O)(=O)Cc2ccccc2)c1F` [Compound 237, N-[2-Fluoro-3-methyl-4-[[3-[2-[[(3S)-3-piperidyl]amino]pyrimidin-4-yl]-2-pyridyl]oxy]phenyl]-1 phenylmethanesulfonamide], the IC50 is 8.4 nM.

Consider `O=S(=O)(Cc1ccccn1)Nc1ccc(Oc2ncccc2-c2ccnc(N[C@H]3CCCNC3)n2)c(F)c1F` [Compound 238, (S)—N-(2,3-Difluoro-4-(3-(2-(piperidin-3-ylamino)pyrimidin-4-yl)pyridin-2-yloxy)phenyl)-1-(pyridin-2-yl)methanesulfonamide], for which the IC50 is 14 nM.

`O=S(=O)(Cc1ccccc1)Nc1ccc(Oc2ncccc2-c2ccnc(N[C@@H]3CNCC(F)(F)C3)n2)c(F)c1F` [Compound 183, (S)-N-(4-((3-(2-((5,5-difluoropiperidin-3-yl)amino)pyrimidin-4-yl)pyridin-2-yl)oxy)-2,3-difluorophenyl)-1-phenylmethanesulfonamide]: the IC50 worked out at 8.5 nM. `O=S(=O)(Cc1ccccc1)Nc1ccc(Oc2ncccc2-c2ccnc(N[C@H]3CCCNC3)n2)cc1F` [Compound 106, (S)-N-(2-fluoro-4-((3-(2-(piperidin-3-ylamino)pyrimidin-4-yl)pyridin-2-yl)oxy)phenyl)-1-phenylmethanesulfonamide hydrochloride]: the IC50 is 5.7 nM. For the compound `O=S(=O)(Cc1ccccc1)Nc1ccc(Oc2ncccc2-c2ccnc(NC34CNCC3C4)n2)c(F)c1F` (single isomer, unassigned) [Compound 185, N-(4-((3-(2-(3-Azabicyclo[3.1.0]hexan-5-ylamino)pyrimidin-4-yl)-2-pyridyl)oxy)-2,3-difluoro-phenyl)-1-phenyl-methanesulfonamide], the half-inhibitory concentration (IC50) worked out at 9.4 nM. For the compound `CN1CCN(Cc2ccc(NC(=O)Nc3cccc(Oc4ncccc4-c4ccnc(N[C@@H]5CNC[C@@H](F)C5)n4)c3)cc2C(F)(F)F)CC1` [Compound 286, 1-(3-((3-(2-(((3S,5S)-5-Fluoropiperidin-3-yl)amino)pyrimidin-4-yl)pyridin-2-yl)oxy)phenyl)-3-(4-((4-methylpiperazin-1-yl)methyl)-3-(trifluoromethyl)phenyl)urea hydrochloride], the IC50 was 260 nM. Against the preceding compound, the IC50 is about 28-fold higher.

As for `CC(C)(F)C1CNCC(Nc2nccc(-c3cccnc3Oc3cc(F)c(NS(=O)(=O)Cc4ccccc4)c(F)c3F)n2)C1` (single isomer, unassigned) [Compound 335, 1-Phenyl-N-(2,3,6-trifluoro-4-((3-(2-((5-(2-fluoropropan-2-yl)piperidin-3-yl)amino)pyrimidin-4-yl)pyridin-2-yl)oxy)phenyl)methanesulfonamide hydrochloride], the IC50 was 330 nM. The value for `Cc1cc(NS(=O)(=O)Cc2ccccc2)c(F)cc1Oc1ncccc1-c1ccnc(N[C@H]2CCCNC2)n1` [Compound 158, (S)-N-(2-fluoro-5-methyl-4-(3-(2-(piperidin-3-ylamino)pyrimidin-4-yl)pyridin-2-yloxy)phenyl)(phenyl)methanesulfonamide] was 5.1 nM. In turn, `O=C(NCc1cccc(Oc2ncccc2-c2ccnc(N[C@H]3CCCNC3)n2)c1F)C1CC1` [Compound 197, (S)—N-(2-Fluoro-3-((3-(2-(piperidin-3-ylamino)pyrimidin-4-yl)pyridin-2-yl)oxy)benzyl)cyclopropanecarboxamide] returned an IC50 of 490 nM. For `O=S(=O)(Cc1ccc(F)cc1)Nc1c(F)cc(Oc2ncccc2-c2ccnc(N[C@@H]3CNC[C@@H](F)C3)n2)c(F)c1F` [Compound 372, 1-(4-Fluorophenyl)-N-(2,3,6-trifluoro-4-((3-(2-(((3S,5S)-5-fluoropiperidin-3-yl)amino)pyrimidin-4-yl)pyridin-2-yl)oxy)phenyl)methanesulfonamide] the value was 0.2 nM; for `O=S(=O)(CC1(F)CC1)Nc1ccc(Oc2ncccc2-c2ccnc(N[C@H]3CCCNC3)n2)c(F)c1F` [Compound 188, (S)-N-(2,3-difluoro-4-((3-(2-(piperidin-3-ylamino)pyrimidin-4-yl)pyridin-2-yl)oxy)phenyl)-1-(1-fluorocyclopropyl)methanesulfonamide], 11 nM.

The compound `COC1CNCC(Nc2nccc(-c3cccnc3Oc3cc(F)c(NS(=O)(=O)Cc4ccccc4)c(F)c3F)n2)C1` (single isomer, unassigned) [Compound 319, 1-Phenyl-N-(2,3,6-trifluoro-4-((3-(2-((5-methoxypiperidin-3-yl)amino)pyrimidin-4-yl)pyridin-2-yl)oxy)phenyl)methanesulfonamide] yielded an IC50 of 0.48 nM. `Cc1ccc(CS(=O)(=O)Nc2cc(F)c(Oc3ncccc3-c3ccnc(N[C@@H]4CNC[C@@](C)(F)C4)n3)c(C)c2F)cc1` [Compound 311, N-(2,5-Difluoro-4-((3-(2-(((3S,5S)-5-fluoro-5-methylpiperidin-3-yl)amino)pyrimidin-4-yl)pyridin-2-yl)oxy)-3-methylphenyl)-1-(p-tolyl)methanesulfonamide] had an IC50 of 0.29 nM. With `Cc1cc(F)ccc1CS(=O)(=O)Nc1c(F)cc(Oc2ncccc2-c2ccnc(N[C@@H]3CNC[C@@H](F)C3)n2)c(F)c1F` [Compound 322, 1-(4-Fluoro-2-methylphenyl)-N-(2,3,6-trifluoro-4-((3-(2-(((3S,5S)-5-fluoropiperidin-3-yl)amino)pyrimidin-4-yl)pyridin-2-yl)oxy)phenyl)methanesulfonamide], the IC50 was 0.42 nM. For `O=S(=O)(Cc1ccccc1)Nc1c(F)cc(Oc2ncccc2-c2ccnc(NC3CNCC(C(F)F)C3)n2)c(F)c1F` (single isomer, unassigned) [Compound 302, N-(4-((3-(2-((5-(Difluoromethyl)piperidin-3-yl)amino)pyrimidin-4-yl)pyridin-2-yl)oxy)-2,3,6-trifluorophenyl)-1-phenylmethanesulfonamide] the value was 0.44 nM; for `C[C@]1(F)CNC[C@@H](Nc2nccc(-c3cccnc3Oc3ccc(NS(=O)(=O)Cc4ccccc4)c(F)c3F)n2)C1` [Compound 162, N-(2,3-difluoro-4-((3-(2-(((3S,5R)-5-fluoro-5-methylpiperidin-3-yl)amino)pyrimidin-4-yl)pyridin-2-yl)oxy)phenyl)-1-phenylmethanesulfonamide], 6.9 nM; for `Cc1c(Oc2ncccc2-c2ccnc(N[C@@H]3CNC[C@@](C)(F)C3)n2)cc(F)c(NS(=O)(=O)Cc2ccccc2)c1F` [Compound 292, N-(2,6-Difluoro-4-((3-(2-(((3S,5S)-5-fluoro-5-methylpiperidin-3-yl)amino)pyrimidin-4-yl)pyridin-2-yl)oxy)-3-methylphenyl)-1-phenylmethanesulfonamide], 0.33 nM. Consider `Cc1cc(NS(=O)(=O)C(C)c2ccccc2)c(F)c(F)c1Oc1ncccc1-c1ccnc(N[C@@H]2CNC[C@@H](F)C2)n1` (single isomer, unassigned) [Compound 313, hydrochloride], for which the IC50 turned out to be 1.2 nM. In the case of `O=S(=O)(CC12CCC(CC1)C2)Nc1c(F)cc(Oc2ncccc2-c2ccnc(N[C@@H]3CNC[C@@H](F)C3)n2)c(F)c1F` [Compound 376, 1-(Bicyclo[2.2.1]heptan-1-yl)N-(2,3,6-trifluoro-4-((3-(2-(((3S,5S)-5-fluoropiperidin-3-yl)amino)pyrimidin-4-yl)pyridin-2-yl)oxy)phenyl)methanesulfonamide], the IC50 stood at 0.2 nM. For `O=S(=O)(Cc1ccc(C(F)(F)F)nc1)Nc1c(F)cc(Oc2ncccc2-c2ccnc(N[C@H]3CCCNC3)n2)c(F)c1F` [Compound 196, (S)-N-(2,3,6-trifluoro-4-((3-(2-(piperidin-3-ylamino)pyrimidin-4-yl)pyridin-2-yl)oxy)phenyl)-1-(6-(trifluoromethyl)pyridin-3-yl)methanesulfonamide] the value was 2.5 nM. For `O=S(=O)(Nc1ccc(Oc2ncccc2-c2ccnc(N[C@H]3CCCNC3)n2)c(F)c1F)c1cc(F)cc(F)c1` [Compound 206, N-[2,3-Difluoro-4-[[3-[2-[[(3S)-3-piperidyl]amino]pyrimidin-4-yl]-2-pyridyl]oxy]phenyl]-3,5-difluoro-benzenesulfonamide] the value was 8.2 nM; for `CCCS(=O)(=O)Nc1cc(C)c(Oc2ncccc2-c2ccnc(N[C@H]3CCCNC3)n2)cc1C` [Compound 126, (S)-N-(2,5-Dimethyl-4-((3-(2-(piperidin-3-ylamino)pyrimidin-4-yl)pyridin-2-yl)oxy)phenyl)propane-1-sulfonamide], 280 nM; for `CC(F)C1CNCC(Nc2nccc(-c3cccnc3Oc3cc(F)c(NS(=O)(=O)Cc4ccccc4)c(F)c3F)n2)C1` (single isomer, unassigned) [Compound 348, 1-Phenyl-N-(2,3,6-trifluoro-4-((3-(2-((5-(1-fluoroethyl)piperidin-3-yl)amino)pyrimidin-4-yl)pyridin-2-yl)oxy)phenyl)methanesulfonamide], 0.2 nM. For `O=S(=O)(Cc1ccccn1)Nc1c(F)cc(Oc2ncccc2-c2ccnc(N[C@@H]3CNC[C@@H](F)C3)n2)c(F)c1F` [Compound 356, 1-(2-Pyridyl)-N-[2,3,6-trifluoro-4-[[3-[2-[[(3S,5S)-5-fluoro-3-piperidyl]amino]pyrimidin-4-yl]-2-pyridyl]oxy]phenyl]methanesulfonamide] the value was 0.2 nM. Turning to `CC(C)(C#N)CCS(=O)(=O)Nc1ccc(Oc2ncccc2-c2ccnc(N[C@H]3CCCNC3)n2)c(F)c1F` [Compound 210, (S)-3-cyano-N-(2,3-difluoro-4-((3-(2-(piperidin-3-ylamino)pyrimidin-4-yl)pyridin-2-yl)oxy)phenyl)-3-methylbutane-1-sulfonamide], the IC50 was 23 nM.

Values taken from patent US12071425B2 (Genentech, Inc., priority 2018, dated 2024).
